“Also recorded” adds a separate entry of the source. Where two headings read alike, the source gives them in different places.
Experiments:
[1] = NR—Cl crystalline forms, previously identified; cited from earlier work
[2] = Hygroscopicity evaluation at about 75% RH (NaCl saturated aqueous solution), visual powder property and polarized light microscopy; type: physicochemical; details: for powder property after 1 day / powder property after 7 days / powder property and crystallinity after 30 days: ~75% RH, room temperature (~22° C.); for hygroscopicity compared to NR—Cl crystalline forms: compared to NR—Cl-Form A and NR—Cl-Form B; for powder state for more than one month: environment of 75% RH
Source text: In addition to the thermal stability, the hygroscopicity, the tendency of a solid substance to absorb moisture from the surrounding atmosphere, is another important physicochemical property that needs to be considered during pharmaceutical development, because, like the heat, the moisture may also damage the drug product at a specific storage condition during the period of the drug shelf life. One of the key disadvantages of the nicotinamide riboside chloride products in the market is its poor hygroscopicity. As reported previously, all the three crystalline forms of the nicotinamide riboside chloride deliquesce at the relative humidity (RH) of 70%-80%. As a result, the nicotinamide riboside chloride requires to store in a dry place to avoid absorbing moisture from the air. […] The hygroscopicity assessment can be achieved by placing compounds in a specified relative humidity environment, e.g., ˜75% RH environment established with the sodium chloride saturated aqueous solution.
A Kerr SureTight™ container of 8 oz Clear Glass Wide Mouth Mason Jars with Silver Vacuum Seal Lid was used to secure the closure. An 8 ml opened vial containing sodium chloride (NaCl) saturated aqueous solution (about 75.5% RH at 20° C. and about 75.3% at 25° C. from www.engineeringtoolbox.com/salt-humidity-d_1887.html) was placed in the SureTight container. The 4 ml of opened vials containing about 5 mg of [NR—Cl]2[RSV] cocrystals or NR—Cl crystalline forms were also placed in the same container with the vial of the NaCl saturated aqueous solution. The container was sealed with the seal lid and placed in a room temperature condition (˜22° C.). The powder property was visually observed directly or during shaking the vial. Crystallinity was assessed under a polarized light microscope.

[3] = Chemical decomposition in alcohol suspension; type: physicochemical
Source text: Reaction crystallization temperatures and times depend upon targeted crystalline form of the cocrystal of a salt that is to be crystallized, the concentration of the salt and coformer in solution, and the solvent system. It should be noted that the elevated temperature or the long reaction time should be avoided to reduce the possibility of chemical decomposition for the […]. […] Even in room temperature, the nicotinamide riboside chloride starts to decompose after stirring in the alcohol suspension for more than 3 days. The preferred reaction time is less than 24 hours with reaction temperature at around room temperature.

[4] = type: physicochemical
Source text: Various solvents are selected based on solubility of starting materials and crystallization methods disclosed herein. […] These differences in solubilities also impact the ratio of the two starting materials. In the disclosed methods to prepare […], a ratio between the nicotinamide riboside chloride salt and resveratrol cofomer from about 2:1 to about 2:2 to prepare [NR—Cl]2[RSV] with a NR—Cl/RSV molar ratio of 2:1.

[5] = Thermal stability by differential scanning calorimetry (DSC); type: physicochemical; details: for heat of fusion: DSC; for melting/decomposition endotherm peak: heating rate 10° C./minute
Source text: Thermal stability is the stability of a molecule at elevated temperatures, and a molecule with more thermal stability has more resistance to decomposition at elevated temperatures. Thermal stability of a compound is one of the most important pharmaceutical properties that requires to be considered during developing a pharmaceutical or nutraceutical product. […] Differential Scanning calorimetry (DSC) is an analysis technique by measuring the heat change associated with the molecule's thermal events when heated at a constant rate. The temperature and its enthalpy change (usually the heat of fusion) at a specific thermal event recorded from DSC technique could be used to evaluate the thermal stability of an organic molecule directly. […] It is desirable to identify a new crystalline form with a higher melting/decomposition temperature and/or a larger heat of fusion to improve the thermal stability of the nicotinamide riboside drug substance.
DSC analysis was performed on samples prepared according to standard methods using a Q SERIES™ Q2500 DSC calorimeter available from TA INSTRUMENTS® (New Castle, Delaware). A sample (approximately 2 mg) was weighed into an aluminum sample pan and transferred to the DSC. The instrument was purged with nitrogen at 50 mL/min and data collected between 22° C. and 300° C., using a dynamic heating rate of 10° C./minute. Thermal data was analyzed using standard software, e.g., TRIOS from TA INSTRUMENTS®.

Compound | solubility in EtOH [4] | solubility in IPA [4] | solubility in MeOH [4] | solubility in water [4] | heat of fusion [1] [J/g] | melting/decomposing temperature [1] [°C] | powder property after 1 day [2] | powder property after 7 days [2] | powder property and crystallinity after 30 days [2] | heat of fusion [5] [J/g] | melting/decomposition endotherm peak [5] | hygroscopicity compared to NR—Cl crystalline forms [2] | powder state for more than one month [2] | also measured
NC(=O)c1ccc[n+]([C@@H]2O[C@H](CO)[C@@H](O)[C@H]2O)c1.[Cl-] [NR—Cl-Form A, nicotinamide riboside chloride] |  |  |  |  | 58 | 119 | deliquesced; also recorded: became sticky and could not flow freely | deliquesced | glass-like liquids (amorphous materials) |  |  |  |  | 
NC(=O)c1ccc[n+]([C@@H]2O[C@H](CO)[C@@H](O)[C@H]2O)c1.[Cl-] [NR—Cl-Form B, nicotinamide riboside chloride] |  |  |  |  | 69 | 123 |  |  | glass-like liquids (amorphous materials) |  |  |  |  | 
resveratrol cocrystal of nicotinamide riboside chloride [[NR—Cl]2[RSV]-Form A] |  |  |  |  |  |  | flowable powders | flowable powders | flowable crystalline powders | 100 | about 128 °C | better hygroscopicity | retain as flowable crystalline powders | thermal stability compared to NR—Cl crystalline forms ([5]; from melting/decomposition temperature and heat of fusion): better thermal stability
resveratrol cocrystal of nicotinamide riboside chloride [[NR—Cl]2[RSV]-Form B] |  |  |  |  |  |  | flowable powders | flowable powders | flowable crystalline powders | 97 | about 127 °C | better hygroscopicity | retain as flowable crystalline powders | 

Further lines, with some results ahead:

solubility in EtOH [4] | solubility in IPA [4] | solubility in MeOH [4] | solubility in water [4] | Compound | heat of fusion [1] [J/g] | melting/decomposing temperature [1] [°C] | powder property after 1 day [2] | powder property after 7 days [2] | powder property and crystallinity after 30 days [2] | heat of fusion [5] [J/g] | melting/decomposition endotherm peak [5] | hygroscopicity compared to NR—Cl crystalline forms [2] | powder state for more than one month [2] | also measured
poorly soluble | poorly soluble | soluble | soluble | NC(=O)c1ccc[n+]([C@@H]2O[C@H](CO)[C@@H](O)[C@H]2O)c1.[Cl-] [nicotinamide riboside chloride] |  |  |  |  |  |  |  |  |  | time within which decomposition occurs in alcohol suspension ([3]; elevated temperature above 50° C.): ≤ 1 h; stirring time after which decomposition starts in alcohol suspension ([3]; room temperature): more than 3 days
soluble | soluble | soluble | poorly soluble | Oc1ccc(/C=C/c2cc(O)cc(O)c2)cc1 [resveratrol, 3,5,4′-trihydroxy-trans-stilbene] |  |  |  |  |  |  |  |  |  | 
